{"source": "patent US20210308040A1", "about": "“KETAMINE ORAL TRANSMUCOSAL DELIVERY SYSTEM” (GUANGZHOU DAZHOU BIOMEDICINE LTD., priority 2018, published 2021)", "origin": "cited, not measured here", "key": {"NMDAR": {"tested_on": "NMDAR", "conditions": "rodent species"}, "[1]": {"conditions": "in vivo"}, "[2]": {"conditions": "ketamine 0.3 mg/kg vs morphine 0.1 mg/kg, intravenous push"}, "[3]": {"test": "not given", "remark": "listed apart in the source"}, "[4]": {"test": "not given", "remark": "listed apart in the source"}, "[5]": {"conditions": "33 CRPS patients; about 23 mg/hr for about 4.7 days"}, "NMDA receptor": {"tested_on": "NMDA receptor", "conditions": "in vitro"}, "[6]": {"tested_on": "experimentally induced ischemic pain"}, "orofacial pain": {"tested_on": "orofacial pain", "conditions": "fixed doses"}, "[7]": {"conditions": "0 to 24 hours postoperatively; bolus 0.5 mg/kg and infusion 0.25 mg/kg/hr"}}, "data": [{"smiles": "CN[C@@]1(c2ccccc2Cl)CCCCC1=O", "note": "[R-ketamine]", "values": [{"measurement": "psychotomimetic side effects and abuse liability", "setting": "animal models", "result": "free of psychotomimetic side effects and abuse liability"}, {"measurement": "antidepressant effectiveness versus S-ketamine", "setting": "model animal studies", "result": "more effective as an antidepressant than S-ketamine"}]}, {"smiles": "C[C@]12N[C@H](Cc3ccccc31)c1ccccc12", "note": "[MK-801]", "values": [{"measurement": "effect on analgesia", "setting": "NMDAR", "result": "anti-analgesic effect"}]}, {"smiles": "CNC1(c2ccccc2Cl)CCCCC1=O", "note": "(racemic) [ketamine]", "values": [{"measurement": "onset of antidepressant effect after administration", "setting": "[1]", "result": "≤ 2", "unit": "h"}, {"measurement": "primary change in mean pain scores versus morphine", "setting": "[2]", "result": "no significant differences"}, {"measurement": "absolute oral bioavailability", "setting": "[3]; humans", "result": "10-20%"}, {"measurement": "half-life", "setting": "[3]; in vivo", "result": "2 to 3", "unit": "h"}, {"measurement": "systemic (primarily hepatic) clearance", "setting": "[3]; in vivo", "result": "about 19 ml/min·kg"}, {"measurement": "indications of liver toxicity", "setting": "[4]; 39 clinical trials, IV infusion rate less than 1.2 mg/kg/h, bolus less than 1 mg/kg", "result": "no indications of liver toxicity"}, {"measurement": "reduction of opioid consumption", "setting": "[4]; low-dose intravenous (IV) ketamine", "result": 40, "unit": "%"}, {"measurement": "mean immediate response (% relief)", "setting": "[5]", "result": "≤ 92", "unit": "%"}, {"measurement": "patients with alteration in hepatic enzyme profile", "setting": "[5]", "result": "four patients"}, {"measurement": "patients with hallucinations", "setting": "[5]", "result": "six patients"}]}, {"smiles": "CN[C@]1(c2ccccc2Cl)CCCCC1=O", "note": "[S-ketamine]", "values": [{"measurement": "potency in NMDAR binding relative to R-ketamine", "setting": "NMDA receptor", "result": "about 4 times"}, {"measurement": "in vivo potency difference between the two enantiomers", "setting": "[6]", "result": "about 4 times"}, {"measurement": "potency relative to racemic ketamine", "setting": "orofacial pain", "result": 2, "unit": "times"}, {"measurement": "mean difference in morphine consumption versus placebo", "setting": "[7]", "result": 42, "unit": "mg"}]}]}
